Assay results from ChEMBL document CHEMBL1921682, “Molecular properties prediction and synthesis of novel 1,3,4-oxadiazole analogues as potent antimicrobial and antitubercular agents” (Bioorg Med Chem Lett, 2011).
Converted amounts (≈) assume the structure as drawn.

What was measured:
Bacillus subtilis = assay: Antibacterial activity against Bacillus subtilis NCIM 2439 by broth dilution technique; type: functional
Pseudomonas aeruginosa = assay: Antibacterial activity against Pseudomonas aeruginosa ATCC 10145 by broth dilution technique; type: functional
Aspergillus niger = assay: Antifungal activity against Aspergillus niger NCIM 1196 by agar diffusion method; type: functional
[1] = tested on: Mycobacterium tuberculosis; assay: microbe, parasite or virus in culture; details: H37Rv
Description: Antimycobacterial activity against Mycobacterium tuberculosis H37Rv by agar double dilution technique

[2] = Octanol-water partition coefficient, log P of the compound; type: physicochemical
Escherichia coli = assay: Antibacterial activity against Escherichia coli NCIM 5051 by broth dilution technique; type: functional
Candida albicans = assay: Antifungal activity against Candida albicans NCIM 3417 by agar diffusion method; type: functional
Staphylococcus aureus = assay: Antibacterial activity against Staphylococcus aureus NCIM 2079 by broth dilution technique; type: functional

Row | SMILES | MIC (Bacillus subtilis) [µg/mL] | MIC (Pseudomonas aeruginosa) [µg/mL] | MIC (Aspergillus niger) [µg/mL] | MIC90 [1] [µM] | logP [2] | MIC (Escherichia coli) [µg/mL] | MIC (Candida albicans) [µg/mL] | MIC (Staphylococcus aureus) [µg/mL]
1 | Cc1c(NCc2nnc(-c3ccccc3Cl)o2)c(=O)n(-c2ccccc2)n1C | 4 (≈ 10.1 µM) | 8 (≈ 20.2 µM) | 256 (≈ 647 µM) | 1.97 (≈ 0.78 µg/mL) | 2.72 | 4 (≈ 10.1 µM) | 256 (≈ 647 µM) | 4 (≈ 10.1 µM)
2 | Cc1c(NCc2nnc(-c3ccc(Cl)cc3)o2)c(=O)n(-c2ccccc2)n1C | 8 (≈ 20.2 µM) | 8 (≈ 20.2 µM) | 256 (≈ 647 µM) | 3.94 (≈ 1.56 µg/mL) | 2.7 | 4 (≈ 10.1 µM) | 128 (≈ 323 µM) | 8 (≈ 20.2 µM)
3 | Cc1c(NCc2nnc(-c3ccc(N)cc3)o2)c(=O)n(-c2ccccc2)n1C | 32 (≈ 85 µM) | 64 (≈ 170 µM) | 128 (≈ 340 µM) | 4.15 (≈ 1.56 µg/mL) | 1.13 | 16 (≈ 42.5 µM) | 128 (≈ 340 µM) | 16 (≈ 42.5 µM)
4 | Cc1c(NCc2nnc(-c3ccncc3)o2)c(=O)n(-c2ccccc2)n1C | 16 (≈ 44.2 µM) | 32 (≈ 88.3 µM) | 256 (≈ 706 µM) | 0.78 (≈ 0.283 µg/mL) | 0.8 | 16 (≈ 44.2 µM) | 256 (≈ 706 µM) | 16 (≈ 44.2 µM)
5 | Cc1c(NCc2nnc(-c3ccccc3O)o2)c(=O)n(-c2ccccc2)n1C | 64 (≈ 170 µM) | 128 (≈ 339 µM) | 8 (≈ 21.2 µM) | > 13.2 | 1.71 | 128 (≈ 339 µM) | 16 (≈ 42.4 µM) | 128 (≈ 339 µM)
6 | CC(=O)Oc1ccccc1-c1nnc(CNc2c(C)n(C)n(-c3ccccc3)c2=O)o1 | 256 (≈ 610 µM) | 512 (≈ 1220 µM) | 512 (≈ 1220 µM) | > 12.8 | 1.98 | 256 (≈ 610 µM) | 512 (≈ 1220 µM) | 512 (≈ 1220 µM)
7 | Cc1c(NCc2nnc(-c3ccccc3)o2)c(=O)n(-c2ccccc2)n1C | 512 (≈ 1420 µM) | 512 (≈ 1420 µM) | 512 (≈ 1420 µM) | 10 (≈ 3.61 µg/mL) | 2.02 | 512 (≈ 1420 µM) | 512 (≈ 1420 µM) | 512 (≈ 1420 µM)
8 | COc1ccc(-c2nnc(CNc3c(C)n(C)n(-c4ccccc4)c3=O)o2)cc1 | > 512 | > 512 | 16 (≈ 40.9 µM) | > 12.8 | 2.07 | 256 (≈ 654 µM) | 32 (≈ 81.8 µM) | > 512
9 | Cc1ccccc1-c1nnc(CNc2c(C)n(C)n(-c3ccccc3)c2=O)o1 | 256 (≈ 682 µM) | 512 (≈ 1360 µM) | 8 (≈ 21.3 µM) | > 13.3 | 2.38 | 256 (≈ 682 µM) | 16 (≈ 42.6 µM) | 256 (≈ 682 µM)
10 | Cc1cccc(-c2nnc(CNc3c(C)n(C)n(-c4ccccc4)c3=O)o2)c1 | > 512 | > 512 | 128 (≈ 341 µM) | > 13.3 | 2.39 | 512 (≈ 1360 µM) | 256 (≈ 682 µM) | > 512
11 | Cc1ccc(-c2nnc(CNc3c(C)n(C)n(-c4ccccc4)c3=O)o2)cc1 | 512 (≈ 1360 µM) | 512 (≈ 1360 µM) | 4 (≈ 10.7 µM) | 10 (≈ 3.75 µg/mL) | 2.48 | 256 (≈ 682 µM) | 4 (≈ 10.7 µM) | 512 (≈ 1360 µM)
12 | Cc1c(NCc2nnc(Cc3ccccc3)o2)c(=O)n(-c2ccccc2)n1C | 256 (≈ 682 µM) | 256 (≈ 682 µM) | 512 (≈ 1360 µM) | 10 (≈ 3.75 µg/mL) | 1.64 | 256 (≈ 682 µM) | 512 (≈ 1360 µM) | 256 (≈ 682 µM)
13 | Cc1c(NCc2nnc(COc3ccccc3)o2)c(=O)n(-c2ccccc2)n1C | 128 (≈ 327 µM) | 128 (≈ 327 µM) | > 512 | 12.8 (≈ 5 µg/mL) | 0.98 | 64 (≈ 164 µM) | 512 (≈ 1310 µM) | 128 (≈ 327 µM)
14 | Cc1c(NCc2nnc(-c3cccs3)o2)c(=O)n(-c2ccccc2)n1C | 16 (≈ 43.5 µM) | 8 (≈ 21.8 µM) | 128 (≈ 348 µM) | 6.81 (≈ 2.5 µg/mL) | 1.9 | 8 (≈ 21.8 µM) | 256 (≈ 697 µM) | 8 (≈ 21.8 µM)
15 | O=C(O)c1cn(C2CC2)c2cc(N3CCNCC3)c(F)cc2c1=O [CIPROFLOXACIN] | 4 (≈ 12.1 µM) | 4 (≈ 12.1 µM) |  |  |  |  |  | 4 (≈ 12.1 µM)
16 | OC(Cn1cncn1)(Cn1cncn1)c1ccc(F)cc1F [FLUCONAZOLE] |  |  | 2 (≈ 6.53 µM) |  |  |  | 1 (≈ 3.27 µM) | 
17 | NNC(=O)c1ccncc1 [ISONIAZID] |  |  |  | 0.78 (≈ 0.107 µg/mL) |  |  |  | 
